# Tests used:
# Experiment in all cases: relative viability (nuclei count vs DMSO), 5 days (fraction); higher = more cells survive
# NCI-H1755 = tested on: NCI-H1755
# Outline: (§1)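 Lung cancer cell lines in 1536-well plates got either a single drug or a fixed anchor-drug dose together with five library-drug doses (not always all listed) in √10 steps, by pin tool, on the day after seeding. Nuclei were counted after 5 days, and relative viability is the treated-to-vehicle ratio of nuclei counts. Values are medians of duplicate plates.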
# LXF-289 = tested on: LXF-289
# Outline: as §1
# HCC-78 = tested on: HCC-78
# Outline: as §1
# HCC-15 = tested on: HCC-15
# Outline: as §1
# NCI-H2085 = tested on: NCI-H2085
# Outline: as §1
# NCI-H3122 = tested on: NCI-H3122
# Outline: as §1
# EPLC-272H = tested on: EPLC-272H
# Outline: as §1
# NCI-H2023 = tested on: NCI-H2023
# Outline: as §1
# NCI-H358 = tested on: NCI-H358
# Outline: as §1
# CAL-12T = tested on: CAL-12T
# Outline: as §1
# NCI-H441 = tested on: NCI-H441
# Outline: as §1
# NCI-H2126 = tested on: NCI-H2126
# Outline: as §1
# HOP-62 = tested on: HOP-62
# Outline: as §1
# NCI-H1666 = tested on: NCI-H1666
# Outline: as §1
# NCI-H1915 = tested on: NCI-H1915
# Outline: as §1
# UMC-11 = tested on: UMC-11
# Outline: as §1
# EMC-BAC-2 = tested on: EMC-BAC-2
# Outline: as §1
# ChaGo-K-1 = tested on: ChaGo-K-1
# Outline: as §1
# ABC-1 = tested on: ABC-1
# Outline: as §1
# NCI-H1975 = tested on: NCI-H1975
# Outline: as §1
# NCI-H322M = tested on: NCI-H322M
# Outline: as §1
# COR-L 105 = tested on: COR-L 105
# Outline: as §1
smiles,measurement,setting,value
CCN(CC)CCCCNc1ncc2cc(-c3cc(OC)cc(OC)c3)c(NC(=O)NC(C)(C)C)nc2n1 + O=C(c1cc(Cc2n[nH]c(=O)c3ccccc23)ccc1F)N1CCN(C(=O)C2CC2)CC1 [Olaparib] (partner 8 µM),relative viability,NCI-H1755; first compound 0.01 µM,0.874
same,relative viability,NCI-H1755; first compound 0.03162 µM,0.947
same,relative viability,NCI-H1755; first compound 0.1 µM,0.958
same,relative viability,NCI-H1755; first compound 0.3162 µM,1.01
same,relative viability,NCI-H1755; first compound 1 µM,0.934
same,relative viability,LXF-289; first compound 0.01 µM,1.14
same,relative viability,LXF-289; first compound 0.03162 µM,1.11
same,relative viability,LXF-289; first compound 0.1 µM,1.25
same,relative viability,LXF-289; first compound 0.3162 µM,1.1
same,relative viability,LXF-289; first compound 1 µM,1.08
same,relative viability,HCC-78; first compound 0.01 µM,0.82
same,relative viability,HCC-78; first compound 0.03162 µM,0.782
same,relative viability,HCC-78; first compound 0.1 µM,0.802
same,relative viability,HCC-78; first compound 0.3162 µM,0.94
same,relative viability,HCC-78; first compound 1 µM,0.771
same,relative viability,HCC-15; first compound 0.01 µM,0.681
same,relative viability,HCC-15; first compound 0.03162 µM,0.777
same,relative viability,HCC-15; first compound 0.1 µM,0.783
same,relative viability,HCC-15; first compound 0.3162 µM,0.82
same,relative viability,HCC-15; first compound 1 µM,0.728
same,relative viability,NCI-H2085; first compound 0.01 µM,0.818
same,relative viability,NCI-H2085; first compound 0.03162 µM,0.81
same,relative viability,NCI-H2085; first compound 0.1 µM,0.792
same,relative viability,NCI-H2085; first compound 0.3162 µM,0.743
same,relative viability,NCI-H2085; first compound 1 µM,0.752
same,relative viability,NCI-H3122; first compound 0.01 µM,0.642
same,relative viability,NCI-H3122; first compound 0.03162 µM,0.69
same,relative viability,NCI-H3122; first compound 0.1 µM,0.68
same,relative viability,NCI-H3122; first compound 0.3162 µM,0.647
same,relative viability,NCI-H3122; first compound 1 µM,0.71
same,relative viability,EPLC-272H; first compound 0.01 µM,0.884
same,relative viability,EPLC-272H; first compound 0.03162 µM,0.701
same,relative viability,EPLC-272H; first compound 0.1 µM,0.647
same,relative viability,EPLC-272H; first compound 0.3162 µM,0.737
same,relative viability,EPLC-272H; first compound 1 µM,0.488
same,relative viability,NCI-H2023; first compound 0.01 µM,0.521
same,relative viability,NCI-H2023; first compound 0.03162 µM,0.512
same,relative viability,NCI-H2023; first compound 0.1 µM,0.668
same,relative viability,NCI-H2023; first compound 0.3162 µM,0.55
same,relative viability,NCI-H2023; first compound 1 µM,0.449
same,relative viability,NCI-H358; first compound 0.01 µM,0.683
same,relative viability,NCI-H358; first compound 0.03162 µM,0.642
same,relative viability,NCI-H358; first compound 0.1 µM,0.744
same,relative viability,NCI-H358; first compound 0.3162 µM,0.69
same,relative viability,NCI-H358; first compound 1 µM,0.469
same,relative viability,CAL-12T; first compound 0.01 µM,0.678
same,relative viability,CAL-12T; first compound 0.03162 µM,0.78
same,relative viability,CAL-12T; first compound 0.1 µM,0.829
same,relative viability,CAL-12T; first compound 0.3162 µM,0.845
same,relative viability,CAL-12T; first compound 1 µM,0.763
same,relative viability,NCI-H441; first compound 0.01 µM,0.601
same,relative viability,NCI-H441; first compound 0.03162 µM,0.556
same,relative viability,NCI-H441; first compound 0.1 µM,0.531
same,relative viability,NCI-H441; first compound 0.3162 µM,0.715
same,relative viability,NCI-H441; first compound 1 µM,0.688
same,relative viability,NCI-H2126; first compound 0.01 µM,1.03
same,relative viability,NCI-H2126; first compound 0.03162 µM,0.948
same,relative viability,NCI-H2126; first compound 0.1 µM,0.976
same,relative viability,NCI-H2126; first compound 0.3162 µM,0.984
same,relative viability,NCI-H2126; first compound 1 µM,0.899
same,relative viability,HOP-62; first compound 0.01 µM,0.608
same,relative viability,HOP-62; first compound 0.03162 µM,0.523
same,relative viability,HOP-62; first compound 0.1 µM,0.416
same,relative viability,HOP-62; first compound 0.3162 µM,0.823
same,relative viability,HOP-62; first compound 1 µM,0.383
same,relative viability,NCI-H1666; first compound 0.01 µM,0.812
same,relative viability,NCI-H1666; first compound 0.03162 µM,0.708
same,relative viability,NCI-H1666; first compound 0.1 µM,0.686
same,relative viability,NCI-H1666; first compound 0.3162 µM,0.748
same,relative viability,NCI-H1666; first compound 1 µM,0.719
same,relative viability,NCI-H1915; first compound 0.01 µM,0.234
same,relative viability,NCI-H1915; first compound 0.03162 µM,0.291
same,relative viability,NCI-H1915; first compound 0.1 µM,0.239
same,relative viability,NCI-H1915; first compound 0.3162 µM,0.245
same,relative viability,NCI-H1915; first compound 1 µM,0.222
same,relative viability,UMC-11; first compound 0.01 µM,0.39
same,relative viability,UMC-11; first compound 0.03162 µM,0.372
same,relative viability,UMC-11; first compound 0.1 µM,0.422
same,relative viability,UMC-11; first compound 0.3162 µM,0.353
same,relative viability,UMC-11; first compound 1 µM,0.422
same,relative viability,EMC-BAC-2; first compound 0.03162 µM,0.485
same,relative viability,EMC-BAC-2; first compound 0.1 µM,0.56
same,relative viability,EMC-BAC-2; first compound 0.3162 µM,0.507
same,relative viability,EMC-BAC-2; first compound 1 µM,0.525
same,relative viability,ChaGo-K-1; first compound 0.01 µM,0.444
same,relative viability,ChaGo-K-1; first compound 0.03162 µM,0.416
same,relative viability,ChaGo-K-1; first compound 0.1 µM,0.442
same,relative viability,ChaGo-K-1; first compound 0.3162 µM,0.46
same,relative viability,ChaGo-K-1; first compound 1 µM,0.388
same,relative viability,ABC-1; first compound 0.03162 µM,0.754
same,relative viability,ABC-1; first compound 0.1 µM,1.04
same,relative viability,ABC-1; first compound 0.3162 µM,0.93
same,relative viability,ABC-1; first compound 1 µM,1.01
same,relative viability,NCI-H1975; first compound 0.01 µM,0.85
same,relative viability,NCI-H1975; first compound 0.03162 µM,0.791
same,relative viability,NCI-H1975; first compound 0.1 µM,1.05
same,relative viability,NCI-H1975; first compound 0.3162 µM,0.903
same,relative viability,NCI-H1975; first compound 1 µM,0.708
same,relative viability,NCI-H322M; first compound 0.01 µM,0.784
same,relative viability,NCI-H322M; first compound 0.03162 µM,0.638
same,relative viability,NCI-H322M; first compound 0.1 µM,0.745
same,relative viability,NCI-H322M; first compound 0.3162 µM,0.82
same,relative viability,NCI-H322M; first compound 1 µM,0.76
same,relative viability,COR-L 105; first compound 0.01 µM,0.805
same,relative viability,COR-L 105; first compound 0.03162 µM,0.62
same,relative viability,COR-L 105; first compound 0.1 µM,0.73
same,relative viability,COR-L 105; first compound 0.3162 µM,0.619
same,relative viability,COR-L 105; first compound 1 µM,0.696

# From the supplement of paper PMC10307832
